# From patent EP0346132A1, “Pharmaceutical products” (priority 1988, dated 1989)
# “Also recorded” adds a separate entry of the source. Read-outs that look alike come from different tables or passages of the source.
# Experiments:
# HIV [1] = experiment: Anti-HIV assay (protection of infected cells, XTT microculture tetrazolium assay); assay type: cell-based; details: for inhibit the infection and killing of human T lymphocytes (Th cells) by HIV / activity against HIV: statement in words; for activity against HIV: in vitro
# Excerpt: (§1) Compound 14a was screened for anti-HIV activity at the National Cancer Institute, Frederick Cancer Research Facility, Frederick, Maryland (FCRF). The screening mode operational procedures utilized at FCRF are set forth in detail in U.S. patent application Serial No. 07/146,252, filed January 20, 1988, the disclosure of which is incorporated by reference herein.
# (§2) Figure 2 depicts a plot of the percentage of test cells over uninfected cells (%) for both infected and uninfected cells as a function of the increasing concentration of compound 14a.
# (§3) The data plotted on Figure 2 permit the calculation of an effective concentration (EC₅₀) with respect to infected cells of about 0.15 µg/ml, an inhibitory concentration (IC₅₀) with respect to normal cells of about 100 µg/ml, and a therapeutic index (TI₅₀) of about 667. An earlier assay carried out at the Southern Research Institute yielded a TI₅₀ of about 200 when MT-2 cells were cultured with H9/HTLV-IIIB.
# The following are the current screening mode operational procedures utilized at Southern Research Institute, Birmingham, AL. The procedure consists of 3 operations: 1) preparation of infected cells and distribution of the test plates; 2) preparation of drug dilution plates and distribution to the test plates; and 3) XTT assay procedure.
# (§4) Cells to be treated in 50 ml conical centrifuge tubes for 30 minutes with 1-2 µg/ml of polybrene at 37°C, and pelleted (8 min., 1200 RPM). Virus is added [in RMPI-1640, 10% fetal calf serum (FCS), with interleukin-2 (IL-2) (for ATH8 cells), and antibiotics] to provide an MOI of approximately 0.01. An MOI of 0.01 is obtained by adding 10³ infectious units of virus to 10⁵ cells. Medium alone is added to virus-free control cells. The treated or control cells are incubated for 1 hour at 37°C in 5% CO₂ in air. Infected or uninfected cells are diluted to give 1 x 10⁴ cells/100 µl (2 x 10⁴ cells/100 µl for ATH8 cells). Infected or uninfected cells (100 µl) are distributed to appropriate wells of a 96 well, U-bottom, microtiter plate. Each compound dilution is tested in duplicate with infected cells. Uninfected cells are examined for drug sensitivity in a single well for each dilution of compound. Drug free control cells, infected and uninfected, are run in triplicate in wells B3 through D3 and E3 through G3, respectively. Wells A4 through A11 and H4 through H11 are drug blanks and get medium alone at this point. The plates are then incubated at 37°C in 5% CO₂ until ready for drug addition.
# The first dilution of each drug is made in a test tube according to the dilution specified hereinbelow. The remaining dilutions are made in 96-well plates. All wells of each plate are filled with 225 µl of medium using a Cetus liquid handling system programed according to the plate filling worksheet. Twenty-five microliters (25 µl) of 2 diluted compounds are manually added to row 11 of a filled dilution plate in the same order in which the drugs will appear on the test plate. The two compounds are then serially diluted 10 fold from row 11 through row 4, using the Cetus liquid handling system, preprogramed with the serial dilution file worksheet.
# Using a multi-channel pipettor with […], 100 µl of each drug dilution is transferred to the test plate; 100 µl from wells A4 through H4 of the dilution plate to the same wells of the test plate. Wells B3 through G3 and B2 through G2 receive medium alone.
# Test plates are incubated at 37°C in 5% CO₂ in air for 7 days or until virus control cells are lysed as determined microscopically.
# An XTT-PMS solution is prepared immediately prior to its addition to the wells of the culture dish [1 mg/ml XTT; 2,3-bis(2-methoxy-4-nitro-5-sulfophenyl)-5-(phenylamino)carbonyl-2H-tetrazolium hydroxide solution in media without FCS]. The stock PMS (phenazine methosulfate (15.3 mg PMS/ml FBS)) solution is diluted 1:100 (0.153 mg/ml). […]
# P-388 Leukemia Cells = experiment: P-388 mouse leukemia cell culture cytotoxicity assay; assay type: cell-based; details: P388, inhibitory (cytotoxicity) concentration for P-388 leukemia cells in culture, read-out: ED₅₀
# Excerpt: The ED₅₀ cytotoxicity concentrations determined for analogs 7a, 9a, 10a, 16a, and 17a in the P-388 mouse leukemia cell culture assay are given in Table II.
# [2] = Anti-HIV assay, toxicity to uninfected (normal) cells, MT-2; assay type: cell-based; details: human, mt-2 cells, ID₅₀
# Excerpt: as §1, §2, §3, §4
# [3] = Anti-HIV assay, toxicity to uninfected (normal) cells, ATH-8; assay type: cell-based; details: human, ath-8 cells; first ID₅₀ column (c2); Cell Line ATH-8
# Excerpt: as §1, §3
# (§5) Cells to be treated in 50 ml conical centrifuge tubes for 30 minutes with 1-2 µg/ml of polybrene at 37°C, and pelleted (8 min., 1200 RPM). Virus is added [in RMPI-1640, 10% fetal calf serum (FCS), with interleukin-2 (IL-2) (for ATH8 cells), and antibiotics] to provide an MOI of approximately 0.01. An MOI of 0.01 is obtained by adding 10³ infectious units of virus to 10⁵ cells. Medium alone is added to virus-free control cells. The treated or control cells are incubated for 1 hour at 37°C in 5% CO₂ in air. […] The plates are then incubated at 37°C in 5% CO₂ until ready for drug addition.
# MT-2 = experiment: Anti-HIV assay, toxicity to uninfected (normal) cells, MT-2; assay type: cell-based; details: Homo sapiens, MT2; Figure 2; screened at FCRF; normal cells; read-out: inhibitory concentration (IC₅₀) with respect to normal cells
# Excerpt: as §1, §2, §3, §4
# HSV-1 = experiment: Activity against Herpes Simplex Virus Type 1; details: statement in words
# [4] = Anti-HIV assay, toxicity to uninfected (normal) cells, MT-2C; assay type: cell-based; details: human, mt-2c cells
# Excerpt: as §1, §3, §5
# [5] = Anti-HIV assay, toxicity to uninfected (normal) cells, CEM-C; assay type: cell-based; details: human, first ID₅₀ column (c2), Cell Line CEM-C
# Excerpt: as §1, §3, §5
# HIV [6] = details: background and literature; statement in words; cited from earlier work
# HIV [7] = details: early clinical trials; statement in words; cited from earlier work
# [8] = Human immunodeficiency virus 1, Cell Line MT-2, read-out: ED₅₀
# [9] = Human immunodeficiency virus 1, Cell Line MT-2C, read-out: ED₅₀
compound,measurement,setting,value
"CC(=O)OC[C@@H]1C=C[C@H](n2cnc3c(=O)[nH]c(N)nc32)C1 (racemic) [1α-acetate ester of 14a, (1α,2α)-4-(2-Amino-6-hydroxy-9H-purin-9-yl)-2-cyclopentenyl Acetoxycarbinol]",inhibition at 6 µg/mL,"HIV [1]; Human immunodeficiency virus 1, against HIV at 6 µg/ml",28%
"Nc1c(Cl)ncnc1N[C@H]1C=C[C@@H](CO)C1 (racemic) [Compound 3a, (±)-(1α,4α)-4-[(5-Amino-6-chloro-4-pyrimidinyl)-amino]-2-cyclopentenylcarbinol]",inhibit the infection and killing of human T lymphocytes (Th cells) by HIV,HIV [1],effective
Nc1c(Cl)ncnc1N[C@H]1CC[C@@H](CO)C1 (racemic) [Compound 3b],inhibit the infection and killing of human T lymphocytes (Th cells) by HIV,HIV [1],effective
"Nc1nc(Cl)cc(N[C@H]2C=C[C@@H](CO)C2)n1 (racemic) [Compound 4a, (±)-(1α,4α)-4-[(2-Amino-6-chloro-4-pyrimidinyl)-amino]-2-cyclopentenylcarbinol]",inhibit the infection and killing of human T lymphocytes (Th cells) by HIV,HIV [1],effective
Nc1nc(Cl)cc(N[C@H]2CC[C@@H](CO)C2)n1 (racemic) [Compound 4b],inhibit the infection and killing of human T lymphocytes (Th cells) by HIV,HIV [1],effective
"Nc1nc(Cl)c(N=Nc2ccc(Cl)cc2)c(N[C@H]2C=C[C@@H](CO)C2)n1 (racemic) [Compound 5a, (±)-(1α,4α)-4-{[2-Amino-6-chloro-5-(4-chlorophenyl)-azo]-4-pyrimidinyl]-amino}-2-cyclopentenylcarbinol]",inhibit the infection and killing of human T lymphocytes (Th cells) by HIV,HIV [1],effective
"Nc1nc(Cl)c(N)c(N[C@H]2C=C[C@@H](CO)C2)n1 (racemic) [Compound 6a, (±)-(1α,4α)-4-[(2,5-Diamino-6-chloro-4-pyrimidinylamino]-2 cyclopentenylcarbinol]",inhibit the infection and killing of human T lymphocytes (Th cells) by HIV,HIV [1],effective
"OC[C@@H]1C=C[C@H](n2cnc3c(Cl)ncnc32)C1 (racemic) [Compound 7a, (±)-(1α,4α)-4-(6-chloro-9H-purin-9-yl)-2-cyclopentenylcarbinol]",activity against HIV,HIV [1],active
same,inhibit the infection and killing of human T lymphocytes (Th cells) by HIV,HIV [1],effective
same,IC50,P-388 Leukemia Cells,12 µg/mL
same,CC50,[2],58.5 µg/mL
"O=c1[nH]cnc2c1ncn2[C@H]1C=C[C@@H](CO)C1 (racemic) [Compound 8a, (±)-(1α,4α)-4-(6-Hydroxy-9H-purin-9-yl)-2-cyclopentenylcarbinol]",inhibit the infection and killing of human T lymphocytes (Th cells) by HIV,HIV [1],effective
"Nc1ncnc2c1ncn2[C@H]1C=C[C@@H](CO)C1 (racemic) [Compound 9a, (±)-(1α,4α)-4-(6-Amino-9H-purin-9-yl)-2-cyclopentenylcarbinol]",EC50,HIV [1]; [8],2.3 µg/mL
same,activity against HIV,HIV [1],active
same,inhibit the infection and killing of human T lymphocytes (Th cells) by HIV,HIV [1],effective
same,IC50,P-388 Leukemia Cells,40 µg/mL
same,CC50,[2],50 µg/mL
"OC[C@@H]1C=C[C@H](n2cnc3c(S)ncnc32)C1 (racemic) [Compound 10a, (±)-(1α,4α)-4-(6-Mercapto-9H-purin-9-yl)-2-cyclopentenylcarbinol]",activity against HIV,HIV [1],active
same,inhibit the infection and killing of human T lymphocytes (Th cells) by HIV,HIV [1],effective
same,IC50,P-388 Leukemia Cells,3 µg/mL
same,CC50,[2],7.33 µg/mL
"Nc1nc(Cl)c2ncn([C@H]3C=C[C@@H](CO)C3)c2n1 (racemic) [Compound 13a, (±)-(1α,4α)-4-(2-Amino-6-chloro-9H-purin-9-yl)-2-cyclopentenyl carbinol]",EC50,HIV [1]; [8],0.41 µg/mL
same,activity against HIV,HIV [1],active
same,inhibit the infection and killing of human T lymphocytes (Th cells) by HIV,HIV [1],effective
same,CC50,[2],6.97 µg/mL
"Nc1nc2c(ncn2[C@H]2C=C[C@@H](CO)C2)c(=O)[nH]1 (racemic) [Compound 14a, (±)-(1α,4α)-4-(2-Amino-6-hydroxy-9H-purin-9-yl)-2-cyclopentenyl carbinol]",CC50,[3],55.3 µg/mL
same,therapeutic index (TI₅₀),"HIV [1]; Figure 2, screened at FCRF",about 667
same,EC50,"HIV [1]; Human immunodeficiency virus 1, ATH-8, Cell Line ATH-8, read-out: ED₅₀",0.2 µg/mL
same,EC50,"HIV [1]; Human immunodeficiency virus 1, Figure 2, screened at FCRF, read-out: effective concentration (EC₅₀) with respect to infected cells",~0.15 µg/mL
same,TI₅₀,"HIV [1]; earlier assay at Southern Research Institute, MT-2 cells cultured with H9/HTLV-IIIB",about 200
same,activity against HIV,HIV [1],strongly inhibits HIV infectivity in vitro
same,inhibit the infection and killing of human T lymphocytes (Th cells) by HIV,HIV [1],effective
same,IC50,MT-2,~100 µg/mL
same,active against HSV-1,HSV-1,active
"Nc1nc(N)c2ncn([C@H]3C=C[C@@H](CO)C3)c2n1 (racemic) [Compound 15a, (±)-(1α,4α)-4-(2,6-Diamino-9H-purin-9-yl)-2-cyclopentenylcarbinol]",CC50,[4],> 125 µg/mL
same,EC50,HIV [1]; [9],1.9 µg/mL
same,activity against HIV,HIV [1],active
same,inhibit the infection and killing of human T lymphocytes (Th cells) by HIV,HIV [1],effective
Nc1nc(Cl)c2nnn([C@H]3C=C[C@@H](CO)C3)c2n1 (racemic) [Compound 16a],IC50,P-388 Leukemia Cells,1 µg/mL
Nc1nc2c(nnn2[C@H]2C=C[C@@H](CO)C2)c(=O)[nH]1 (racemic) [Compound 17a],IC50,P-388 Leukemia Cells,4.5 µg/mL
"Nc1nc(O)c2ncn([C@H]3C=C[C@@H](CO)C3)c2n1 [(-)14a, (1S,4R)-4-(2-Amino-6-hydroxy-9H-Purin-9-yl)-2-cyclopentenyl Carbinol]",CC50,"[4]; first ID₅₀ column (c2), Cell Line MT-2C, read-out: ID₅₀",135 µg/mL
same,EC50,HIV [1]; [9],0.325 µg/mL
same,activity against HIV,HIV [1],highly active
same,CC50,[5],189 µg/mL
"[N-]=[N+]=N[C@H]1C[C@H](n2ccc(=O)[nH]c2=O)O[C@@H]1CO [CS-87, 3′-azido-2′,3′-dideoxyuridine]",activity against HIV in vitro,HIV [6],significant activity against HIV in vitro; also recorded: significantly inhibit HIV replication in vitro
"NC(=O)c1ncn([C@@H]2O[C@H](CO)[C@@H](O)[C@H]2O)n1 [Ribavirin, 1-β-D-Ribofuranosyl-1H-1,2,4-triazole-3-carboxamide]",effect in AIDS patients,HIV [7],inhibited viral replication
"Cc1cn([C@H]2C=C[C@@H](CO)O2)c(=O)[nH]c1=O [d4T, 2′,3′-dideoxy-2′,3′-didehydrothymidine]",activity against HIV in vitro,HIV [6],potent inhibitor of HIV replication in vitro
"OC[C@@H]1CC[C@H](n2cnc3c(O)ncnc32)O1 [ddI, 2′,3′-Dideoxyinosine]",activity against HIV in vitro,HIV [6],inhibit HIV-induced cytopathic effects in vitro; also recorded: significant antiviral activity against HIV in vitro
